Reference: article PMC8521015, “Salicylic Acid, a Plant Hormone, Suppresses Phytophagous Insect Immune Response by Interrupting HMG-Like DSP1” (Frontiers in Physiology, 2021)

Biological target: T1, Se-DSP1 (Spodoptera exigua, UniProt A0A5P9L9K9)
T1 construct: full-length ORF, 505 residues; pET vector, bacterial expression, 6xHis and V5 tags, Ni-NTA then Sephadex G-100
T1 sequence (A0A5P9L9K9 1-505): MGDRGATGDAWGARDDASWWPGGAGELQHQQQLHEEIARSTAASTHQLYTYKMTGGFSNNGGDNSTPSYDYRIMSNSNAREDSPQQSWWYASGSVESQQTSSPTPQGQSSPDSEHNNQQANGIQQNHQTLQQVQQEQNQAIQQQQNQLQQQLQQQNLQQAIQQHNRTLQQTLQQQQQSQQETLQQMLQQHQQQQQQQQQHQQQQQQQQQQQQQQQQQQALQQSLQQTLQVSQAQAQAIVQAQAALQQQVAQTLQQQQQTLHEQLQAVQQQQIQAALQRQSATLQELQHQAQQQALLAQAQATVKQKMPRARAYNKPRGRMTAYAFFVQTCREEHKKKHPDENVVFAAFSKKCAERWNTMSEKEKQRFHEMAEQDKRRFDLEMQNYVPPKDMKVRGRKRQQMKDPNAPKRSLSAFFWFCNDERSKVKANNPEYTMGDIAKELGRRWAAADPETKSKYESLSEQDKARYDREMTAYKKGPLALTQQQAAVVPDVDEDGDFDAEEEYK
Test: thermal shift assay (Protein Thermal Shift dye, StepOne real-time PCR)
Conditions: 0-20 μM SA; 500 ng protein; 25-99 °C at 2.96 °C/min; ligand binding equation fit of melting temperatures

Kd: 1280 ± 50 nM
Structure (SMILES): O=C(O)c1ccccc1O [SA, 2-hydroxybenzoic acid]
